Laboratory results taken from PubChem BioAssay AID248 (DTP/NCI, 2004).
Values joined by “and” are separate entries in the source; they are usually repeats but may differ in a detail not shown here. Identical values can stand only once. Inconclusive results and toxic doses are left out.

Test system: L1210 leukemia ip in BDF1 mice, survival T/C
Assay: NCI In Vivo Anticancer Drug Screen. Data for tumor model L1210 Leukemia (intraperitoneal) in B6D2F1 (BDF1) mice
Details: endpoint: mean survival time, higher = longer survival
How it was run: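 Mice bearing the transplanted tumor received compound or vehicle. Survival of the treated group was divided by that of the vehicle-treated control group to give the ratio.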

[1] = dose: 100.0 mg/kg/injection, schedule: Q01DX001 (ip), vehicle: saline with Tween-80
[2] = dose: 200.0 mg/kg/injection, schedule: Q01DX001 (ip), vehicle: saline with Tween-80
[3] = dose: 400.0 mg/kg/injection, schedule: Q01DX001 (ip), vehicle: saline with Tween-80
[4] = dose: 50.0 mg/kg/injection, schedule: Q01DX009 (ip), vehicle: Klucel (hydroxypropylcellulose) (HPC)
[5] = dose: 100.0 mg/kg/injection, schedule: Q01DX009 (ip), vehicle: Klucel (hydroxypropylcellulose) (HPC)
[6] = dose: 200.0 mg/kg/injection, schedule: Q01DX009 (ip), vehicle: Klucel (hydroxypropylcellulose) (HPC)
[7] = dose: 100.0 mg/kg/injection, schedule: Q01DX009 (ip), vehicle: saline with Tween-80
[8] = dose: 100.0 mg/kg/injection, schedule: Q04DX003 (ip), vehicle: saline with Tween-80
[9] = dose: 200.0 mg/kg/injection, schedule: Q01DX009 (ip), vehicle: saline with Tween-80
[10] = dose: 200.0 mg/kg/injection, schedule: Q04DX003 (ip), vehicle: saline with Tween-80
[11] = dose: 400.0 mg/kg/injection, schedule: Q01DX009 (ip), vehicle: saline with Tween-80
[12] = dose: 400.0 mg/kg/injection, schedule: Q04DX003 (ip), vehicle: saline with Tween-80
[13] = dose: 400.0 mg/kg/injection, schedule: Q01DX009 (ip), vehicle: Klucel (hydroxypropylcellulose) (HPC)
[14] = dose: 100.0 mg/kg/injection, schedule: Q04DX002 (ip), vehicle: saline
[15] = dose: 200.0 mg/kg/injection, schedule: Q04DX002 (ip), vehicle: saline

C=CC(O)c1ccccc1 (stereo not given)
T/C (dose: 75.0 mg/kg/injection, schedule: Q01DX009 (ip), vehicle: saline with Tween-80): 90 % of control
T/C (dose: 75.0 mg/kg/injection, schedule: Q04DX003 (ip), vehicle: saline with Tween-80): 89 % of control
T/C (dose: 150.0 mg/kg/injection, schedule: Q01DX009 (ip), vehicle: saline with Tween-80): 87 % of control
T/C (dose: 150.0 mg/kg/injection, schedule: Q04DX003 (ip), vehicle: saline with Tween-80): 109 % of control
T/C (dose: 300.0 mg/kg/injection, schedule: Q01DX009 (ip), vehicle: saline with Tween-80): 88 % of control
T/C (dose: 300.0 mg/kg/injection, schedule: Q04DX003 (ip), vehicle: saline with Tween-80): 105 % of control

NC(=NCc1ccccc1)c1ccc(N=C(N)c2ccc(C(N)=Nc3ccc(C(N)=NCc4ccccc4)cc3)cc2)cc1
T/C (dose: 5.0 mg/kg/injection, schedule: Q01DX001 (ip), vehicle: water): 95 % of control
T/C (dose: 6.25 mg/kg/injection, schedule: Q01DX009 (ip), vehicle: saline): 119 % of control
T/C (dose: 10.0 mg/kg/injection, schedule: Q01DX001 (ip), vehicle: water): 96 % of control
T/C (dose: 12.5 mg/kg/injection, schedule: Q01DX009 (ip), vehicle: saline): 153 % of control
T/C (dose: 12.5 mg/kg/injection, schedule: Q01DX015 (oral), vehicle: water): 95 % of control
T/C (dose: 15.0 mg/kg/injection, schedule: Q01DX001 (ip), vehicle: water): 98 % of control
T/C (dose: 18.0 mg/kg/injection, schedule: Q01DX015 (ip), vehicle: water): 249 % of control
T/C (dose: 20.0 mg/kg/injection, schedule: Q01DX001 (ip), vehicle: water): 107 % of control
T/C (dose: 25.0 mg/kg/injection, schedule: Q01DX009 (ip), vehicle: saline): 114 % of control
T/C (dose: 25.0 mg/kg/injection, schedule: Q01DX015 (ip), vehicle: water): 222 % of control and 256 % of control
T/C (dose: 25.0 mg/kg/injection, schedule: Q01DX015 (oral), vehicle: water): 91 % of control
T/C (dose: 50.0 mg/kg/injection, schedule: Q01DX015 (oral), vehicle: water): 98 % of control
T/C (dose: 100.0 mg/kg/injection, schedule: Q01DX015 (oral), vehicle: water): 98 % of control

O=C1SCCC1NP(=O)(OCc1ccccc1)OCc1ccccc1 (stereo not given)
T/C [1]: 102 % of control
T/C [2]: 102 % of control
T/C [3]: 98 % of control

CC(=O)OC1CCC2(C)C(=CCC3C2CCC2(C)C3CC3OC4(CCC(C)CN4C(C)=O)C(C)C32)C1 (stereo not given)
T/C [1]: 98 % of control
T/C [2]: 95 % of control
T/C [3]: 95 % of control

CC(CC(CCC(CC(C)CC(C)(C)C)N(C)C)N(C)C)CC(C)(C)C (stereo not given)
T/C [4]: 90 % of control
T/C (dose: 50.0 mg/kg/injection, schedule: Q04DX002 (ip), vehicle: Klucel (hydroxypropylcellulose) (HPC)): 93 % of control
T/C [5]: 96 % of control
T/C (dose: 100.0 mg/kg/injection, schedule: Q04DX002 (ip), vehicle: Klucel (hydroxypropylcellulose) (HPC)): 87 % of control
T/C [6]: 101 % of control

O=C(Cn1ccc(O)cc1=O)c1ccco1
T/C [7]: 108 % of control
T/C [8]: 96 % of control
T/C [9]: 104 % of control
T/C [10]: 94 % of control
T/C [11]: 101 % of control
T/C [12]: 97 % of control

NC(=O)C=C1c2ccccc2-c2ccccc21
T/C (dose: 25.0 mg/kg/injection, schedule: Q01DX009 (ip), vehicle: Klucel (hydroxypropylcellulose) (HPC)): 97 % of control
T/C [4]: 94 % of control
T/C [5]: 96 % of control
T/C [6]: 91 % of control
T/C [13]: 89 % of control

O=c1[nH]cc(CC(F)(F)C(F)(F)F)c(=O)[nH]1
T/C (dose: 50.0 mg/kg/injection, schedule: Q01DX005 (ip), vehicle: other): 87 % of control

CN(CCO)/N=N/c1nc[nH]c1C#N
T/C (dose: 100.0 mg/kg/injection, schedule: Q01DX001 (ip), vehicle: other): 98 % of control
T/C [7]: 103 % of control
T/C [8]: 102 % of control
T/C (dose: 200.0 mg/kg/injection, schedule: Q01DX001 (ip), vehicle: other): 100 % of control
T/C [9]: 103 % of control
T/C [10]: 107 % of control
T/C (dose: 400.0 mg/kg/injection, schedule: Q01DX001 (ip), vehicle: other): 94 % of control
T/C [11]: 113 % of control
T/C [12]: 102 % of control

CCCC(=O)C(CC)C(OC(C)=O)(C(F)(F)F)C(F)(F)F (stereo not given)
T/C (dose: 75.0 mg/kg/injection, schedule: Q01DX009 (ip), vehicle: Klucel (hydroxypropylcellulose) (HPC)): 87 % of control
T/C (dose: 150.0 mg/kg/injection, schedule: Q01DX009 (ip), vehicle: Klucel (hydroxypropylcellulose) (HPC)): 89 % of control
T/C (dose: 300.0 mg/kg/injection, schedule: Q01DX009 (ip), vehicle: Klucel (hydroxypropylcellulose) (HPC)): 87 % of control

CCN(CCS)Cc1ccccc1
T/C (dose: 25.0 mg/kg/injection, schedule: Q01DX009 (ip), vehicle: saline with Tween-80): 95 % of control
T/C (dose: 25.0 mg/kg/injection, schedule: Q04DX003 (ip), vehicle: saline with Tween-80): 94 % of control
T/C (dose: 50.0 mg/kg/injection, schedule: Q01DX009 (ip), vehicle: saline with Tween-80): 97 % of control
T/C (dose: 50.0 mg/kg/injection, schedule: Q04DX003 (ip), vehicle: saline with Tween-80): 91 % of control
T/C [7]: 95 % of control
T/C [8]: 91 % of control

CCOC(=O)c1ccc(NC(=O)Nc2cc(C)ccn2)cc1
T/C [5]: 96 % of control
T/C [6]: 107 % of control
T/C [13]: 105 % of control

CCN=C(N)C(C)SS(=O)(=O)O (stereo not given)
T/C [14]: 106 % of control
T/C [15]: 98 % of control

CCN(CCO)CCNc1ccc(C)c2sc3ccccc3c(=O)c12
T/C (dose: 26.0 mg/kg/injection, schedule: Q01DX009 (ip), vehicle: saline): 110 % of control
T/C (dose: 40.0 mg/kg/injection, schedule: Q01DX009 (ip), vehicle: saline): 122 % of control
T/C (dose: 50.0 mg/kg/injection, schedule: Q01DX001 (ip), vehicle: saline): 105 % of control
T/C (dose: 60.0 mg/kg/injection, schedule: Q01DX009 (ip), vehicle: saline): 124 % of control
T/C (dose: 78.0 mg/kg/injection, schedule: Q04DX003 (ip), vehicle: saline): 111 % of control
T/C (dose: 100.0 mg/kg/injection, schedule: Q01DX001 (ip), vehicle: saline): 116 % of control
T/C (dose: 114.0 mg/kg/injection, schedule: Q01DX001 (ip), vehicle: saline): 104 % of control
T/C (dose: 114.0 mg/kg/injection, schedule: Q04DX003 (ip), vehicle: saline): 120 % of control
T/C (dose: 135.0 mg/kg/injection, schedule: Q01DX009 (ip), vehicle: saline): 95 % of control
T/C (dose: 174.0 mg/kg/injection, schedule: Q01DX001 (ip), vehicle: saline): 110 % of control
T/C (dose: 174.0 mg/kg/injection, schedule: Q04DX003 (ip), vehicle: saline): 172 % of control
T/C (dose: 200.0 mg/kg/injection, schedule: Q01DX001 (ip), vehicle: saline): 121 % of control
T/C (dose: 260.0 mg/kg/injection, schedule: Q01DX001 (ip), vehicle: saline): 165 % of control

O=C(NCCCCCCNC(=O)N(O)C12CC3CC(CC(C3)C1)C2)N(O)C12CC3CC(CC(C3)C1)C2
T/C (dose: 100.0 mg/kg/injection, schedule: Q01DX001 (ip), vehicle: Klucel (hydroxypropylcellulose) (HPC)): 95 % of control
T/C (dose: 200.0 mg/kg/injection, schedule: Q01DX001 (ip), vehicle: Klucel (hydroxypropylcellulose) (HPC)): 90 % of control
T/C (dose: 400.0 mg/kg/injection, schedule: Q01DX001 (ip), vehicle: Klucel (hydroxypropylcellulose) (HPC)): 90 % of control

CC(=O)[C@H]1[C@H](C)C[C@H]2[C@@H]3CCC4=CC(=O)CC[C@]4(C)[C@@]3(F)[C@@H](O)C[C@@]21C
T/C [5]: 103 % of control
T/C (dose: 100.0 mg/kg/injection, schedule: Q04DX003 (ip), vehicle: Klucel (hydroxypropylcellulose) (HPC)): 100 % of control
T/C [6]: 101 % of control
T/C (dose: 200.0 mg/kg/injection, schedule: Q04DX003 (ip), vehicle: Klucel (hydroxypropylcellulose) (HPC)): 97 % of control
T/C [13]: 97 % of control
T/C (dose: 400.0 mg/kg/injection, schedule: Q04DX003 (ip), vehicle: Klucel (hydroxypropylcellulose) (HPC)): 101 % of control

CCCCCCCCCCC(=O)N1CCCCC1
T/C [14]: 100 % of control
T/C [15]: 96 % of control
T/C (dose: 400.0 mg/kg/injection, schedule: Q04DX002 (ip), vehicle: saline): 96 % of control
